Results on one compound are retold here after patent US20250017888A1, “COMPOUNDS FOR TREATING DISEASES ASSOCIATED WITH HYALURONAN OVERPRODUCTION” (THE ROYAL VETERINARY COLLEGE, priority 2021, published 2025).

Molecules are shown by their SMILES.

What all share (type): cell-based
The test system of one series is chondrosarcoma cells. In words: Uptake of flavonoids into chondrosarcoma cells by intracellular fluorescence. The procedure:
Confluent monolayers of chondrosarcoma cells on 96 well microtiter plates were incubated with 100 μM solutions of flavonoids in serum-free Quantum medium. Changes in fluorescence were monitored from the bottom of the wells at excitation and emission wavelengths of 340 nm and 450 nm for xanthohumol and at 440 nm and 530 nm for quercetin, respectively.
Flavonoids are weakly fluorescent in aqueous buffer, but greatly enhance the fluorescence in the presence of proteins (Sengupta, B. and Sengupta, P. K., Biochem. Biophys. Res. Commun., 2002, 299, 400-403). This property was used to follow the uptake of quercetin and xanthohumol into chondrosarcoma cells.

The test system of a further series is bovine cartilage slices. In words: Collagen loss from cartilage explants (van Gieson staining). The settings on record: Il-1α, Il-1β and Il-17; 12.5 μM and 50 μM; 14 days. The procedure:
Cartilage explants were incubated with and without a mixture of 10 ng/ml of II-1α, 10 ng/ml of II-1β and 25 ng/ml of II-17 for 14 days. The addition of the cytokines was repeated daily. The tissues were fixed with 3.7% paraformaldehyde for 24 hours, imbedded in paraffin and stained by the van Giesson method.
Cartilage explants were incubated with and without a mixture of 10 ng/ml of 11-17 and 5 ng/ml of II-1α for 14 days. The addition of the cytokines was repeated daily. The tissues were fixed with 3.7% paraformaldehyde for 24 hours, imbedded in paraffin and stained by the van Gieson method (van Gieson, 1. (1889) Laboratory notes of technical methods for the nervous system. New York Medical Journal 50, 57-60).
It is known that hyaluronan overproduction leads to collagen degradation from cartilage (Deiters, B. and Prehm, P., Arthritis Res. Ther., 2008, 10, R8; Prehm, P., J. Rheumatol., 2005, 32, 690-696). […] Therefore cartilage explants were incubated with a mixture of the osteoarthritis inducing […] II-1α, II-1β and II-17 with 12.5 μM and 50 μM of the prenylflavonoids for 14 days and collagen was stained by the van Giesson method.

In series [1] the test system is chondrosarcoma cells (SW1353). In words: Alamar blue staining of chondrosarcoma. The settings on record: Homo sapiens. The procedure:
(§1) The hyaluronan synthase activity (Prehm, P. and Schumacher, U., Biochem. Pharmacol. 2004, 68, 1401-1410), the cytotoxicity of the drugs (O'Brien, J. et al., Eur. J. Biochem. 2000, 267, 5421-5426), proteoglycan synthesis rate, hyaluronan (Prehm, P. J. Rheumatol., 2005, 32, 690-696) and proteoglycan (Bjornsson, S. Anal. Biochem. 1993, 210, 282-291) were determined as described. The effect of the prenylflavonoids on the MRP5 export rate was measured with fluorescein diacetate as described (Schulz, T., Schumacher, U., and Prehm, P., J Biol. Chem., 2007, 282, 20999-21004). The determination of the IC50 values on the phosphodiesterase 5 was performed according to the instructions of BPS Bioscience. The culture of bovine chondrocytes in alginate beads and of explants of bovine cartilage was described previously (Deiters, B. and Prehm, P. Arthritis Res. Ther., 2008, 10, R8; Prehm, P. J. Rheumatol. 2005, 32, 690-696). Osteoarthritic reactions were induced in chondrocytes growing in alginate beads by incubation with medium containing 10 ng/ml of II-17 for 6 days, and in cartilage explants with 10 ng/ml of II-17 and 5 ng/ml of II-1α. The supernatants were withdrawn and stored at −20° C. for later analysis. The explants were weighed and extracted with 1 ml of 4 M guanidinium-HCl for 72 hours at 4° C. The proteoglycan concentrations were determined in the extracts.
Chondrosarcoma cells (SW1353 from the American Type Culture Collection) were grown in Dulbecco's medium supplemented with streptomycin/penicillin (100 units of each/ml), 10% foetal calf serum or in serum free Quantum medium supplemented with streptomycin/penicillin (100 units of each/ml), kanamycin (100 units/ml).
On the technique in general: Alamar Blue is a resazurin reagent that responds to reducing activity.

The test system of the next series is fibroblasts. In words: Alamar blue staining of fibroblasts. The settings on record: Fibroblast. The procedure: as §1
The test system of series [2] is bovine cartilage explants. Description: Proteoglycan loss from interleukin activated bovine cartilage explants. The settings on record: Bos taurus; read-out: IC50 Inhibition of proteoglycan loss. The procedure:
Cartilage explants were weighed (average wet weight: 20 mg) incubated in the absence and presence of IL-1 (2 ng/ml) and the inhibitors at various concentrations for 5 days. The tissues were extracted with 1.5 ml of a solution of 4 M guanidinium hydrochloride, 0.1 M ε-aminohexanoid acid, 5 mM benzamidine, 10 mM N-ethylmaleinimide, 0.5 mM phenylmethylsulfonyl fluoride for 3 days at 4° C. The solution was centrifuged for 5 min at 10.000 g and the proteoglycans were determined in the supernatant by the alcian blue method as described (Bjornsson, S., Anal. Biochem., 1993, 210, 282-291).
Bovine cartilage explants were incubated in the absence and presence of interleukin for stimulation of osteoarthritic reactions and the indicated concentrations of the xanthohumol-betaine (FIG. 6A), xanthohumol-prothiazole (FIG. 6B), quercetin-prothiazole (FIG. 6C), quercetin (FIG. 6D) and xanthohumol (FIG. 6E) for 5 days. The cartilage explants were weighed and the proteoglycan concentrations were determined in the cartilage explants (solid bars) and culture supernatants (open bars).

A short description of series [3]: Alamar blue toxicity assay (FIG. 1). The settings on record: below concentrations of 100 μM. The procedure:
as §1
The toxicity was determined by the Alamar blue assay.

Series [4] deals with hyaluronan export from chondrosarcoma cells. Description: Inhibition of hyaluronan export / production in chondrosarcoma cells. The procedure:
as §1
Chondrosarcoma cells were plated on a 96 well microtiter plate and in the presence of increasing flavonoid concentrations. After 2 days the concentration of hyaluronan was determined in the culture supernatant.

For `COc1cc(O)c(CC=C(C)C)c(O)c1C(=O)/C=C/c1ccc(O)cc1` [Xanthohumol, reference compound], the “uptake into chondrosarcoma cells (intracellular fluorescence)” value with chondrosarcoma cells is reported as “did not accumulate inside the cells”. The “protection of cartilage from collagen loss” value with bovine cartilage slices is listed as “effective at protecting the cartilage from collagen loss”. For the same compound, the 50% inhibitory concentration (IC50) in series [1] came to 76 µM; in the series with fibroblasts, 55 µM; in series [2] it was 2.6 µM; in series [4], 19 µM. Also, the “toxicity in Alamar blue assay” value in series [3] was “not toxic”.

The IC50 is the concentration needed to halve the response being measured.
